{
  "source": "patent US11133139B2",
  "about": "“Use of 1-chloro-2,3,3,3-tetrafluoropropene for isolating or extinguishing electric arcs” (Arkema France, priority 2018, dated 2021)",
  "key": {"[1]": {"assay": "Dielectric strength measurement in a homogeneous field, relative to SF6", "assay_type": "physicochemical", "description": "The results are as follows, expressed in a relative manner as percentage of the dielectric strength of the reference gas SF6: • HCFO-1224yd(Z): 178%.\nIts dielectric strength values (with an interelectrode distance of 12 mm) is then as follows, still with respect to SF6: • HCFO-1224yd(Z) at 17° C.: 159%."}, "[2]": {"assay": "Toxicity (statement, no method)"}, "[3]": {"assay": "Flammability, thermal stability, saturated vapor pressure / condensation", "assay_type": "physicochemical"}, "[4]": {"settings": "prior art statement; cited from earlier work"}, "[5]": {"settings": "prior art statement; cited from earlier work", "remark": "listed apart in the source"}},
  "data": [
    {"smiles": "O=C=O", "note": "[CO2, carbon dioxide, reference compound]", "values": [
      {"measurement": "dielectric strength as % of that of SF6", "setting": "[1]; −15° C., 1.14 bar", "result": 51, "unit": "%"}
    ]},
    {"smiles": "FC(=CCl)C(F)(F)F", "note": "[HCFO-1224yd(Z), 1-chloro-2,3,3,3-tetrafluoropropene]", "values": [
      {"measurement": "dielectric strength as percentage of the dielectric strength of the reference gas SF6", "setting": "[1]; 20° C., 1.3 bar, homogeneous field, interelectrode distance 12 mm", "result": 178, "unit": "%"},
      {"measurement": "dielectric strength with respect to SF6", "setting": "[1]; pure state, 17° C., 1.14 bar, interelectrode distance 12 mm", "result": 159, "unit": "%"},
      {"measurement": "toxicity", "setting": "[2]", "result": "very low level of toxicity"},
      {"measurement": "flammability", "setting": "[3]", "result": "nonflammable"},
      {"measurement": "thermal stability", "setting": "[3]", "result": "thermally stable"},
      {"measurement": "minimum temperature of use in the pure state without condensation", "setting": "[3]; pressure of 1.14 bar", "result": 17, "unit": "°C"},
      {"measurement": "saturated pressure", "setting": "[3]; −15° C.", "result": 0.29, "unit": "bar"}
    ]},
    {"smiles": "FS(F)(F)(F)(F)F", "note": "[SF6, sulfur hexafluoride]", "values": [
      {"measurement": "flammability (background)", "setting": "[4]", "result": "nonflammable"},
      {"measurement": "toxicity (background)", "setting": "[5]", "result": "nontoxic to man and animals"}
    ]},
    {"smiles": "FC(F)(F)I", "note": "[trifluoroiodomethane]", "values": [
      {"measurement": "toxicity (background)", "setting": "[5]", "result": "category-3 carcinogenic, mutagenic and reprotoxic substances"}
    ]}
  ]
}
